Values of other authors in publication PMC6317935 (ChemistryOpen, 2018).

Tested on: FXR
Details: read-out: EC50 (FXR agonist)
For `COC(=O)/C=C/c1cccc(N(Cc2ccc(-c3ccc(N(C)C)cc3)cc2)C(=O)C2CCCCC2)c1` [Compound 3, Fexaramine], the EC50 is given as 25 nM.
In the case of `CC(C)OC(=O)C1=CN(C(=O)c2ccc(F)c(F)c2)CC(C)(C)c2c1[nH]c1ccccc21` [Compound 4, WAY‐362450], the EC50 is listed as 4 nM.
